Our source for the IC50 values is ChEMBL document CHEMBL4028825, “Pharmacological evaluation of a novel series of urea, thiourea and guanidine derivatives as P2X7 receptor antagonists” (Bioorg Med Chem Lett, 2017).

This assay has as its target T1, P2X purinoceptor 7 (Homo sapiens, UniProt Q99572).
T1 sequence (Q99572 whole entry): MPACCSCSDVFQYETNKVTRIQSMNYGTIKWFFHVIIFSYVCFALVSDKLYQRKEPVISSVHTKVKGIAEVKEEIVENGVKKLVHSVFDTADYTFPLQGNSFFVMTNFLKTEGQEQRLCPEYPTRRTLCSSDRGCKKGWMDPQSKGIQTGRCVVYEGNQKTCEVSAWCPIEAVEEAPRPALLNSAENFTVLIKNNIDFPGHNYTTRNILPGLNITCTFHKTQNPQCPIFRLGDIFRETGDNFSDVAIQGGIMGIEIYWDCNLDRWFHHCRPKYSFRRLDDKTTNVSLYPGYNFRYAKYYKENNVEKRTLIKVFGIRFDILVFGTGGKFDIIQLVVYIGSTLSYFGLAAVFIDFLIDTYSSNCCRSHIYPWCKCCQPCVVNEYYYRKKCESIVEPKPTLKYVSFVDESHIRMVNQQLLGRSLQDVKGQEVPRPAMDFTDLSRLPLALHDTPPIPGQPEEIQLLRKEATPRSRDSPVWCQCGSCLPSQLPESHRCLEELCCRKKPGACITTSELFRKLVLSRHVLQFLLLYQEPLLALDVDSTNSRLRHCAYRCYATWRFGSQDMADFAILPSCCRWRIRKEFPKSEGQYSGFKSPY
In words: Antagonist activity at P2X7 receptor in human THP1 cells assessed as inhibition of BzATP-induced YO-PRO-1 Iodide uptake measured every 30 secs for 1 hr by fluorescence assay. In kind it is cell-based.

Some results are limits rather than exact numbers.

As to `O=C(NCc1ccccc1)NCC12CC3CC(CC(C3)C1)C2`, the IC50 (read-out: IC50) was 4.54 µM.
Turning to `O=C(NCc1cccnc1)NCC12CC3CC(CC(C3)C1)C2`, the IC50 (read-out: IC50) was 3.38 µM.
For the compound `S=C(NCC12CC3CC(CC(C3)C1)C2)Nc1ccccc1`, for the setting “read-out: IC50”, the IC50 stood at 2.42 µM.
For the compound `N=C(NCc1ccccc1)NCC12CC3CC(CC(C3)C1)C2`, the IC50 (read-out: IC50) is more than 10 µM.
In the case of `O=C(NCc1ccccn1)NCC12CC3CC(CC(C3)C1)C2`, the IC50 (read-out: IC50) was determined as 5.95 µM.
Turning to `O=C(NCC12CC3CC(CC(C3)C1)C2)Nc1ccccc1`, the IC50 (read-out: IC50) came out at 4.96 µM.
As for `O=C(NCc1ccncc1)NCC12CC3CC(CC(C3)C1)C2`, the IC50 (read-out: IC50) was determined as 6.75 µM.
In the case of `N=C(NCC12CC3CC(CC(C3)C1)C2)Nc1ccccc1`, the IC50 result is given as “Nd(Insoluble)”.
As for `S=C(NCc1ccccc1)NCC12CC3CC(CC(C3)C1)C2`, the IC50 (read-out: IC50) worked out at 4.24 µM.
With `O=C(NCCc1ccccc1)NCC12CC3CC(CC(C3)C1)C2`, the IC50 (read-out: IC50) came to 6.41 µM.
